Key:
Type in all cases: cell-based, Influenza virus A/Udorn/72
[1] = biological target: A/M2-V27A (Influenza A virus, UniProt P0DOF5, V27A); details: for inhibition of the mutant: 100 µM
[2] = biological target: A/M2-V27A/L38F (Influenza A virus, UniProt P0DOF5, L38F/V27A)
[3] = biological target: A/M2-A30T (Influenza A virus, UniProt P0DOF5, A30T)
[4] = biological target: A/M2-S31N (Influenza A virus, UniProt P0DOF5, S31N)
[5] = biological target: A/M2-V27G (Influenza A virus, UniProt P0DOF5, V27G)
[6] = biological target: A/M2-L26F (Influenza A virus, UniProt P0DOF5, L26F)
[7] = biological target: A/M2-G34E (Influenza A virus, UniProt P0DOF5, G34E)

| SMILES | inhibition of the mutant [1] | sensitivity of the double mutant channel [2] | % remaining activity after application of 100 μM compound [3] [%] | % remaining activity after application of 100 μM compound [1] [%] | IC50 [1] [mM] | % remaining activity after application of 100 μM compound [4] [%] | IC50 [4] [mM] | % remaining activity after application of 100 μM compound [5] [%] | % remaining activity after application of 100 μM compound [6] [%] | IC50 [6] [mM] | % remaining activity after application of 100 μM compound [7] [%] | inhibition of the mutant [4] |
| --- | --- | --- | --- | --- | --- | --- | --- | --- | --- | --- | --- | --- |
| NC12CC3CC(CC(C3)C1)C2 [Amantadine, amantadine] | less than 10% | not sensitive |  |  |  |  |  |  |  |  |  |  |
| C1CCC2(CC1)CCN(C1=NCCN1)CC2 [BL-1743, 2-[3-azaspiro([5],[5])undecanol]-2-imidazoline] | less than 10% | not sensitive | 102±2.3 | 97.4±1.8 | > 10 | 100±0.67 | > 10 | 82.9±9.3 | 89.2±4.8 | > 10 | 89.8±6.9 |  |
| NC1CCC2(CCCCC2)CC1 [Compound 8, spiro[5.5]undecan-3-amine] |  |  | 98.1±7.0 | 46.6±6.6 |  | 99.1±0.9 |  | 87.9±6.1 | 32.4±3.3 |  |  | little inhibition |
